Results on 21 compounds are retold here after publication doi:10.1101/2020.02.10.936898v1 (biorxiv, 2020).

Molecules are shown by their SMILES.

The target in experiment [1] is T1, CVB3 3C^pro (Coxsackievirus B3, UniProt Q5UEA2). Description: biochemical.
Experiment [2] concerns the target EV-A71 3C^pro (Human enterovirus 71 (strain BRCR), UniProt Q66478). As to conditions: read-out: EV-A71 3Cpro; inhibitor.
The target in experiment [3] is T1, CVB3 3C^pro. Description: FRET peptide cleavage assay. It is filed as biochemical.
For experiment [4], the target named is HCoV-NL63 M^pro (Human coronavirus NL63, UniProt P0C6X5). The experiment is described as follows: FRET peptide cleavage assay. The experiment is classed as biochemical.
In experiment [5] the test system is CVB3 (Nancy). Description: microbe, parasite or virus in culture. As to conditions: Enterovirus B, CVB3, read-out: CVB3 replicon *. More on the design: species or system Huh-T7.
The test system of experiment [6] is EV-A71. Description: microbe, parasite or virus in culture. More on the design: species or system Huh-T7. As to conditions: Enterovirus A, EVA71, read-out: EV-A71 replicon *.

Chain of HCoV-NL63 M^pro (P0C6X5 2940-3242): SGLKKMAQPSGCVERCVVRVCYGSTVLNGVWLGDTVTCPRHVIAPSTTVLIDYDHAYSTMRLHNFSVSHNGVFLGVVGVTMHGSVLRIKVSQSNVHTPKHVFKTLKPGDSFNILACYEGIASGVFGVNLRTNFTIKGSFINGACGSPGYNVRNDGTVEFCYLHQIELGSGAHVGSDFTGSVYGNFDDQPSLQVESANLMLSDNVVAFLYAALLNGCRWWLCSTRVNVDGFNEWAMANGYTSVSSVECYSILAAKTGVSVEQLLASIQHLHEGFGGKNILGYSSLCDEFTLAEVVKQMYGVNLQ
Chain of EV-A71 3C^pro (Q66478 1549-1731): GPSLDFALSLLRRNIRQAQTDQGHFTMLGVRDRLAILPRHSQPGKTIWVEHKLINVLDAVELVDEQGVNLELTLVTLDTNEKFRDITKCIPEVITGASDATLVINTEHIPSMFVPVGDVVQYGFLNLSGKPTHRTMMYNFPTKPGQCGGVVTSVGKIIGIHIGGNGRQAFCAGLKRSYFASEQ

As for `O=C(NCc1ccccc1)C(=O)[C@H](C[C@@H]1CCNC1=O)NC(=O)[C@H](Cc1ccccc1)NC(=O)c1cc2ccccc2o1` [11j], the IC50 was determined as 9.19 ± 2.99 µM in experiment [1] and 11.3 ± 6.52 µM in experiment [2].

With `CC(C)(C)OC(=O)N[C@@H](C[C@@H]1CCNC1=O)C(=O)C(=O)NCc1ccccc1` [11f, tert-Butyl ((S)-4-(benzylamino)-3,4-dioxo-1-((S)-2-oxopyrrolidin-3-yl)butan-2-yl)carbamate], the IC50 in experiment [3] and in experiment [4] was greater than 50 µM each time.

For `O=C(/C=C/c1ccccc1)N[C@H](C(=O)N[C@@H](C[C@@H]1CCNC1=O)C(=O)C(=O)NCc1ccccc1)C1CC1` [11q, (S)-N-benzyl-3-((S)-2-cinnamamido-2-cyclopropylacetamido)-2-oxo-4-((S)-2-oxopyrrolidin-3-yl)butanamide], the IC50 in experiment [3] was determined as 15.4 ± 4.12 µM; in experiment [4], 11.5 ± 5.05 µM.

As to `O=C(/C=C/c1ccccc1)N[C@@H](Cc1ccccc1)C(=O)N[C@@H](C[C@@H]1CCNC1=O)C(=O)C(=O)NCc1ccccc1` [11a, (S)-N-benzyl-3-((S)-2-cinnamamido-3-phenylpropanamido)-2-oxo-4-((S)-2-oxopyrrolidin-3-yl)butanamide], the IC50 in experiment [3] is 6.56 ± 3.1 µM; in experiment [4] it was greater than 50 µM.

Take `CCCC[C@H](NC(=O)/C=C/c1ccccc1)C(=O)N[C@@H](C[C@@H]1CCNC1=O)C(=O)C(=O)NCc1ccccc1` [11o, (S)-N-((S)-4-(benzylamino)-3,4-dioxo-1-((S)-2-oxopyrrolidin-3-yl)butan-2-yl)-2-cinnamamidohexanamide]: the IC50 in experiment [3] is 5.2 ± 0.28 µM; in experiment [4] it was greater than 50 µM.

`O=C(CCc1ccccc1)N[C@@H](Cc1ccccc1)C(=O)N[C@@H](C[C@@H]1CCNC1=O)C(=O)C(=O)NCc1ccccc1` [11g]: the figures for the IC50 in experiment [1] and in experiment [2] were 3.5 ± 1.06 µM and 4.57 ± 1.04 µM, respectively.

Turning to `O=C(NCc1ccccc1)C(=O)[C@H](C[C@@H]1CCNC1=O)NC(=O)[C@H](Cc1ccccc1)NC(=O)c1cc2ccccc2s1` [11k], the IC50 in experiment [1] is 18.6 ± 0.58 µM; in experiment [2], greater than 50 µM.

For `CCCCNC(=O)C(=O)[C@H](C[C@@H]1CCNC1=O)NC(=O)[C@H](Cc1ccccc1)NC(=O)/C=C/c1ccccc1` [11b], the IC50 came to 1 ± 0.35 µM in experiment [1] and 2.38 ± 0.58 µM in experiment [2].

For the compound `O=C(/C=C/c1ccccc1)N[C@@H](Cc1ccc(F)cc1)C(=O)N[C@@H](C[C@@H]1CCNC1=O)C(=O)C(=O)NCc1ccccc1` [11m, (S)-N-benzyl-3-((S)-2-cinnamamido-3-(4-fluorophenyl)propanamido)-2-oxo-4-((S)-2-oxopyrrolidin-3-yl)butanamide], the IC50 in experiment [3] was 8.69 ± 1.28 µM; in experiment [4], greater than 50 µM.

As to `CC(C)C[C@H](NC(=O)/C=C/c1ccccc1)C(=O)N[C@@H](C[C@@H]1CCNC1=O)C(=O)C(=O)NCc1ccccc1` [11n, (S)-N-((S)-4-(benzylamino)-3,4-dioxo-1-((S)-2-oxopyrrolidin-3-yl)butan-2-yl)-2-cinnamamido-4-methylpentanamide], the IC50 in experiment [3] amounted to 3.82 ± 1.21 µM; in experiment [4] it was 1.08 ± 0.09 µM.

In the case of `CC(C)(C)NC(=O)C(=O)[C@H](C[C@@H]1CCNC1=O)NC(=O)[C@H](Cc1ccccc1)NC(=O)/C=C/c1ccccc1` [11c], the IC50 in experiment [1] turned out to be 9.86 ± 2.68 µM; in experiment [2], 19 ± 5.79 µM.

For the compound `O=C(/C=C/c1ccccc1)N[C@@H](CC1CCC1)C(=O)N[C@@H](C[C@@H]1CCNC1=O)C(=O)C(=O)NCc1ccccc1` [11t, (S)-N-benzyl-3-((S)-2-cinnamamido-3-cyclobutylpropanamido)-2-oxo-4-((S)-2-oxopyrrolidin-3-yl)butanamide], the EC50 in experiment [5] came out at 2.2 µM. The IC50 in experiment [3] came out at 4.78 ± 1.13 µM; in experiment [4], 3.43 ± 2.45 µM.

With `O=C(/C=C/c1ccccc1)N[C@@H](CC1CCCCC1)C(=O)N[C@@H](C[C@@H]1CCNC1=O)C(=O)C(=O)NCc1ccccc1` [11r, (S)-N-benzyl-3-((S)-2-cinnamamido-3-cyclohexylpropanamido)-2-oxo-4-((S)-2-oxopyrrolidin-3-yl)butanamide], the EC50 in experiment [5] came out at 0.45 µM; in experiment [6] it was 0.85 µM. The IC50 in experiment [3] stood at 0.95 ± 0.15 µM; in experiment [4], 12.3 ± 3.56 µM.

As to `C#CC[C@H](NC(=O)/C=C/c1ccccc1)C(=O)N[C@@H](C[C@@H]1CCNC1=O)C(=O)C(=O)NCc1ccccc1` [11p, (S)-N-((S)-4-(benzylamino)-3,4-dioxo-1-((S)-2-oxopyrrolidin-3-yl)butan-2-yl)-2-cinnamamidopent-4-ynamide], the IC50 in experiment [3] was 8.93 ± 2.39 µM; in experiment [4] it was 17.4 ± 3.97 µM.

Regarding `COC(=O)CNC(=O)C(=O)[C@H](C[C@@H]1CCNC1=O)NC(=O)[C@H](Cc1ccccc1)NC(=O)/C=C/c1ccccc1` [11e], the IC50 in experiment [1] was found to be 9.91 ± 1.84 µM; in experiment [2], 11.1 ± 2.64 µM.

On to `O=C(NCc1ccccc1)C(=O)[C@H](C[C@@H]1CCNC1=O)NC(=O)[C@H](Cc1ccccc1)NC(=O)c1ccc2c(c1)OCCO2` [11h], for which the IC50 in experiment [1] was determined as 3.66 ± 0.79 µM; in experiment [2] it was 4.75 ± 2.73 µM.

For the compound `CC(C)CNC(=O)C(=O)[C@H](C[C@@H]1CCNC1=O)NC(=O)[C@H](CC(C)C)NC(=O)/C=C/c1ccccc1` [11d], the IC50 in experiment [1] was found to be 6.5 ± 0.58 µM; in experiment [2] it was 17.7 ± 8.78 µM.

In the case of `O=C(/C=C/c1ccccc1)N[C@@H](CC1CC1)C(=O)N[C@@H](C[C@@H]1CCNC1=O)C(=O)C(=O)NCc1ccccc1` [11s, (S)-N-benzyl-3-((S)-2-cinnamamido-3-cyclopropylpropanamido)-2-oxo-4-((S)-2-oxopyrrolidin-3-yl)butanamide], the IC50 in experiment [3] amounted to 4.25 ± 1.4 µM; in experiment [4], 1.37 ± 0.35 µM.

For the compound `O=C(/C=C/c1ccccc1)N[C@@H](CC1CCCC1)C(=O)N[C@@H](C[C@@H]1CCNC1=O)C(=O)C(=O)NCc1ccccc1` [11u, (S)-N-benzyl-3-((S)-2-cinnamamido-3-cyclopentylpropanamido)-2-oxo-4-((S)-2-oxopyrrolidin-3-yl)butanamide], the EC50 amounted to 4.9 µM in experiment [5] and 3.65 µM in experiment [6]. In addition, the IC50 turned out to be 1.93 ± 0.43 µM in experiment [3] and 5.41 ± 2.31 µM in experiment [4].

For `O=C(NCc1ccccc1)C(=O)[C@H](C[C@@H]1CCNC1=O)NC(=O)[C@H](Cc1ccccc1)NC(=O)c1cn2cc(Br)ccc2n1` [11l], the IC50 in experiment [1] was 30.8 ± 12.9 µM; in experiment [2], greater than 50 µM.

Regarding `O=C(NCc1ccccc1)C(=O)[C@H](C[C@@H]1CCNC1=O)NC(=O)[C@H](Cc1ccccc1)NC(=O)c1cccc2c1OCCO2` [11i], the figures for the IC50 in experiment [1] and in experiment [2] were 4.82 ± 1.17 µM and 9.74 ± 3.88 µM, respectively.
